Source: BindingDB's records for patent US12065407 (Plex Pharmaceuticals, 2024)
pKi: −log10 of the molar value.

Tests used:
[1] = target: Peptidyl-prolyl cis-trans isomerase FKBP1A (Homo sapiens, UniProt P62942); experiment: Ki Estimation
[2] = target: T1, Peptidyl-prolyl cis-trans isomerase FKBP4 (Homo sapiens, UniProt Q02790); experiment: Ki Estimation
T1 sequence (Q02790 whole entry): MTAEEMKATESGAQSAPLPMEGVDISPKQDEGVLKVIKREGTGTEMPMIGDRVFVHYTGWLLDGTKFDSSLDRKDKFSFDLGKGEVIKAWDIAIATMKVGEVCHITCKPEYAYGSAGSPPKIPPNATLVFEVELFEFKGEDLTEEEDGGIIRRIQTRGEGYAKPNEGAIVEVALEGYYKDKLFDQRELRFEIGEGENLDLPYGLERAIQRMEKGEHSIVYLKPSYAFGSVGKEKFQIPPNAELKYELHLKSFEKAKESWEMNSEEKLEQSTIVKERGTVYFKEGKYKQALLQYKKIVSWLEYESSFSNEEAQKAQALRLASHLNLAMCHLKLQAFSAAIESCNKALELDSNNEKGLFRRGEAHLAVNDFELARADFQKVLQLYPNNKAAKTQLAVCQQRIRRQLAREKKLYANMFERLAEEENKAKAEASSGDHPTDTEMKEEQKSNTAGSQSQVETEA

Chain of Peptidyl-prolyl cis-trans isomerase FKBP1A (P62942 whole entry): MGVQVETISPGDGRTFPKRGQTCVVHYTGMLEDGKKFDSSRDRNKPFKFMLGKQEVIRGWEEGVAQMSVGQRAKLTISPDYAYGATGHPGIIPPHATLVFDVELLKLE

| SMILES | pKi [1] | pKi [2] |
| --- | --- | --- |
| Cn1c(/C=C/c2ccc(Cl)cc2)nc2ccccc21 [US12065407, ID CAP01509] | < 5.00 | < 5.00 |
| Fc1ccccc1Cn1c(/C=C/c2ccccc2)nc2ccccc21 [US12065407, ID CAP01547] | < 5.00 | < 4.82 |
| C(=C\c1nc2ccccc2n1Cc1ccccc1)/c1ccccc1 [US12065407, ID CAP01548] | < 4.82 | < 4.70 |
| CCCn1c(/C=C/c2ccccc2)nc2ccccc21 [US12065407, ID CAP01549] | < 4.70 | < 4.60 |
| CCCCn1c(/C=C/c2ccccc2)nc2ccccc21 [US12065407, ID CAP01554] | < 5.00 | < 4.82 |
| CC(C)Cn1c(/C=C/c2ccccc2)nc2ccccc21 [US12065407, ID CAP01555] | < 4.82 | < 4.70 |
| O=C(N[C@@H](Cc1ccc(Cl)cc1)C(=O)NCCCc1ccccc1)C1C2CC3CC(C2)CC1C3 (stereo partly specified) [US12065407, ID CAP01685] | 4.49 | – |
| O=C(N[C@H](Cc1ccc(Cl)cc1)C(=O)NCCCc1ccccc1)c1ccc2ccccc2c1 [US12065407, ID CAP01691] | < 4.30 | – |
| O=C(N[C@@H](Cc1ccc(Cl)cc1)C(=O)NCCCc1ccccc1)c1ccc(F)cc1 [US12065407, ID CAP01719] | < 4.60 | < 4.60 |
| O=C(N[C@@H](Cc1ccc(Cl)cc1)C(=O)NCCCc1ccccc1)c1nc2ccccc2[nH]1 [US12065407, ID CAP01721] | – | < 4.30 |
| O=C(N[C@@H](Cc1ccc(F)cc1)C(=O)NCCCc1ccccc1)c1ccc2ccccc2c1 [US12065407, ID CAP01740] | < 4.40 | < 4.40 |
| CCC(C)(C)C(=O)N[C@H](C(=O)OCCCc1cccnc1)C1CCCC1 [US12065407, ID Tbl1.1] | < 4.60 | < 4.60 |
